Where “and” joins values, the source holds several entries; their conditions need not be identical. Equal entries are not always repeated.
What was measured:
PDE1 = molecular target: T1, PDE1 (Bos taurus, UniProt P14100); assay: PDE1 enzyme inhibition assay; assay type: biochemical, bovine; conditions: 1000 μM, 1% DMSO vehicle
T1 construct: PDE1 partially purified from bovine heart was used; from tissue; host or cells: bovine heart
Text: In this example, a racemic mixture of monochloroflosequinan and the sulfone derivative of monochloroflosequinan were independently subjected to biochemical enzyme assays to determine their respective percent inhibition of a variety of phosphodiesterases (PDE1-PDE6). The methods used have been adapted from those described in the scientific literature, see Hidaka and Asano “Human blood platelet 3′:5′ cyclic nucleotide phosphodiesterase. Isolation of low-Km and high Km phosphodiesterase.” Biochem. Biophys. Acta 429:485 (1976); Nicholoson et al. “Differential modulation of tissue function and therapeutic potential of selective inhibitors of cyclic nucleotide phosphodiesterase isoenzymes” Trends Pharmacol. Sci. 12:19 (1991); Cortijo et al. “Investigation into the role of phosphodiesterase IV in bronchorelaxation, including studies with hyman bronchus.” Br. J. Pharmacol. 108:562 (1993); Baehr et al. “Isolation and characterization of cGMP phosphodiesterase from bovine rod outer segments.” J. Biol. Chem. 254:11669 (1979) and Gillespie and Beavo “Inhibition and stimulation of photoreceptor phosphodiesterase by dipyridamole and M&B 22,948” Molecular Pharm. 36:773 (1989). A brief summary of the conditions for each enzyme assay is provided below: • PDE1: PDE1 partially purified from bovine heart was used. The compounds were independently incubated with 13 μg PDE1 enzyme, 1.01 μM [^3H]cAMP+cAMP and CaCl2/calmodulin in Tris buffer pH 7.5 for 20 minutes at either 25° C. or 30° C. The reaction was terminated by boiling for 2 minutes, and the resulting AMP was converted to adenosine by addition of 10 mg/ml snake venom nucleotidase and further incubation at 30° C. for 10 minutes. Unhydrolyzed cAMP was bound to AGI-X2 resin, and the remaining [^3H]adenosine in the aqueous phase was quantitated by scintillation counting. • PDE2: PDE2 partially purified from human platelets was used. The compounds were independently incubated with 23 μg PDE2 enzyme, 25.1 μM [^3H]cAMP+cAMP in Tris buffer pH 7.5 for 20 minutes at either 25° C. or 30° C. The reaction was terminated by boiling for 2 minutes, and the resulting AMP was converted to adenosine by addition of 10 mg/ml snake venom nucleotidase and further incubation at 30° C. for 10 minutes. Unhydrolyzed cAMP was bound to AGI-X2 resin, and the remaining [^3H]adenosine in the aqueous phase was quantitated by scintillation counting. • PDE3: PDE3 partially purified from human platelets was used. The compounds were independently incubated with 13 ug PDE3 enzyme and 1.01 μM [^3H]cAMP+cAMP in Tris buffer pH 7.5 for 20 minutes at either 25° C. or 30° C. The reaction was terminated by boiling for 2 minutes, and the resulting AMP was converted to adenosine by addition of 10 mg/ml snake venom nucleotidase and further incubation at 30° C. for 10 minutes. Unhydrolyzed cAMP was bound to AGI-X2 resin, and the remaining [^3H]adenosine in the aqueous phase was quantitated by scintillation counting. • PDE4: PDE4 partially purified from human U-937 pronocytic cells was used. The compounds were independently incubated with 20 μg PDE4 enzyme and 1.01 μM [^3H]cAMP+cAMP in Tris buffer pH 7.5 for 20 minutes at either 25° C. or 30° C. […] Unhydrolyzed cAMP was bound to AGI-X2 resin, and the remaining [^3H]adenosine in the aqueous phase was quantitated by scintillation counting. • PDE5: PDE5 partially purified from human platelets was used. […]

PDE4 = PDE4 enzyme inhibition assay; assay type: biochemical, human; conditions: 1000 μM, 1% DMSO vehicle
Text: In this example, a racemic mixture of monochloroflosequinan and the sulfone derivative of monochloroflosequinan were independently subjected to biochemical enzyme assays to determine their respective percent inhibition of a variety of phosphodiesterases (PDE1-PDE6). The methods used have been adapted from those described in the scientific literature, see Hidaka and Asano “Human blood platelet 3′:5′ cyclic nucleotide phosphodiesterase. Isolation of low-Km and high Km phosphodiesterase.” Biochem. Biophys. […] Unhydrolyzed cAMP was bound to AGI-X2 resin, and the remaining [^3H]adenosine in the aqueous phase was quantitated by scintillation counting. • PDE2: PDE2 partially purified from human platelets was used. […] Unhydrolyzed cAMP was bound to AGI-X2 resin, and the remaining [^3H]adenosine in the aqueous phase was quantitated by scintillation counting. • PDE3: PDE3 partially purified from human platelets was used. […] Unhydrolyzed cAMP was bound to AGI-X2 resin, and the remaining [^3H]adenosine in the aqueous phase was quantitated by scintillation counting. • PDE4: PDE4 partially purified from human U-937 pronocytic cells was used. […] Unhydrolyzed cAMP was bound to AGI-X2 resin, and the remaining [^3H]adenosine in the aqueous phase was quantitated by scintillation counting. • PDE5: PDE5 partially purified from human platelets was used. […]

PDE3 = assay: Biochemical assay of PDE3 inhibition by flosequinan enantiomers; conditions: same molar concentration
Text: It is not intended that the present invention be limited to any particular mechanism to reduce symptoms of sexual dysfunction. In one embodiment, the (+) and (−) enantiomers of flosequinan were subjected to biochemical assays to determine their respective percent inhibition of PDE3.

[1] = tested on: male Cynomolgus monkeys (Macaca fascicularis); assay: Erection monitoring after single intracavernosal dose; assay type: in vivo; design: key to Onset Score / Duration Score: 0: no response; erection but transient—less than 1 minute; 2: erection lasting at least 1 minute but less than 5 minutes; 3: erection lasting at least 5 minutes but less than 7 minutes; 4: erection lasting longer than 7 minutes; conditions: 10 mg/ml intracavernosal; for Erection Score: Erection Score=2D+O; for Erection Index: Erection Score/n, n=number of animals (4 monkeys); for Onset of Erection: minutes post administration
Protocol: In this example, various halogenated derivatives of flosequinan were evaluated for their ability to induce penile erections. A single intracavernosal dose (of a given halogenated derivative of flosequinan) was administered to male Cynomolgus monkeys (Macaca fascicularis). The Cynomolgus monkey was selected because it is an appropriate established non-rodent species to be used as an erectile dysfunction model. Before the application of the test substances the possible erectile effect of dimethylsulfoxide 25% (DMSO) at a dose volume of 0.15 ml was assessed. (Concentrations of test compounds of less than 10 mg/ml were administered in 25% DMSO. Concentrations of 10 mg/ml or greater were administered in 100% DMSO). An initial dose level of 0.625 mg/kg of the test substance and the derivatives were used. If an erectile effect of the initial dose level was observed 1.25 mg/kg and finally 2.5 mg/kg of each test substance was used. Between each dose level and change of test substance there was a wash out phase of three days [except on Days 1 to 4 (Monochloroflosequinan Racemate) and days 40 to 43 (Monofluoroflosequinan) of the study where there was a wash out phase of only two days between treatments]. Dose volume: A dose volume of 0.15 ml per animal was used. The test substances were prepared according to the following scheme. For each test substance 10 mg was diluted in 1 ml of DMSO. After the test substance was completely dissolved the solution was diluted stepwise 1:2 with double distilled water to the required dose level. The test substance was formulated on the day of the dosing and stored at room temperature. No stability test was required when the test substances were formulated on the day of dosing. Remaining test substances were stored at approximately -80° C. Sufficient purpose-bred naive Cynomolgus monkeys (Macaca fascicularis) were obtained from a recognized supplier in order to provide 4 healthy male animals. At the start of study the animals were in the weight range of 4 to 7 kg and approximately 4 to 6 years old. The animals were housed in a climate controlled room to provide a minimum of 10 air changes per hour. Routinely the temperature and relative humidity ranges were between 19-25° C. and 30-70% respectively. Artificial lighting was controlled automatically to give a cycle of 12 hours light and 12 hours dark. The animals were housed singly in stainless steel cages (dimensions: 600 mm×600 mm×800 mm; E. Becker & Co. GmbH, 44579 Castrop-Rauxel, Germany). Each animal was offered twice daily between 50 to 70 g of a commercial pellet diet for primates (Ssniff P10, Ssniff Spezialdiäten GmbH, Ferdinand-Gabriel-Weg 16, 59494 Soest, Germany). Every three months diet was analyzed for specific contaminants. Tap water was provided ad libtum via an automatic watering system or bottles, except during urine collection. The water was periodically analyzed for specific contaminants found to be present in the diet or water at levels that might interfere with achieving the objective of the study. Clinical Observations: In addition to the initial pharmacological effect (penile erection) monitoring, all animals were observed twice daily for signs of ill health or overt toxicity. An individual record was maintained of the clinical condition of each animal. Post-dosing observations were performed at the discretion of the Study Director. All animals were examined at the beginning and the end of the working hours. […] Body weights were recorded once before dosing. Food consumption was not recorded. For proof of erection capability the animals were checked once pre-dose with electrostimulation using a rectal probe under sedation with […]. […] The onset post drug administration and duration of erection were recorded. Table 5 (below) provides an “Erection Score” and “Erection Index” for the same selected halogenated flosequinan derivatives presented in Table 5. […]

[2] = tested on: Protein Serine/Threonine Kinase PKC, non-selective; assay: Protein Serine/Threonine Kinase PKC, non-selective, inhibition assay; assay type: biochemical, rat
Protocol: Protein Serine/Threonine Kinase PKC, non-selective: The enzyme was obtained from rat brain and the substrate was 370 μg/ml histone. The reaction was pre-incubated 5 min at 25° C., followed by a 15 min incubation at 25° C. in a buffer of 20 mM Tris-HCl, 10 mM MgCl2.HO and 0.1 mM CaCl2.2HO, pH 7.4. [^32P]histone was quantitated.

Row | Structure (SMILES) | Duration Score ([1]; monkey 11539M) | Onset Score ([1]; monkey 11539M) | Erection Score ([1]; monkey 11539M) | Duration Score ([1]; monkey 11543M) | Onset Score ([1]; monkey 11543M) | Erection Score ([1]; monkey 11543M) | Duration Score ([1]; monkey 11584M) | Onset Score ([1]; monkey 11584M) | Erection Score ([1]; monkey 11584M) | Duration Erection ([1]; monkey 11590M) | Duration Score ([1]; monkey 11590M) | Onset Score ([1]; monkey 11590M) | Erection Score ([1]; monkey 11590M) | Erection Index [1] | Onset of Erection ([1]; monkey 11590M) | further results
1 | Cn1cc(S(=O)(=O)C(F)F)c(=O)c2ccc(F)cc21 [3-difluoromethylsulfonyl-7-fluoro-1-methyl-4-quinolone] |  |  |  |  |  |  |  |  |  |  |  |  |  |  |  | inhibition at 1000 µM (PDE1): > 50%; inhibition of PDE4 (PDE4): greater than 50%
2 | Cn1cc([S+](C)[O-])c(=O)c2ccc(F)cc21 (single isomer, unassigned; (+)) [(+) enantiomer of flosequinan] |  |  |  |  |  |  |  |  |  |  |  |  |  |  |  | PDE3 inhibition compared to a racemic mixture of flosequinan (PDE3): greater inhibition; PDE3 inhibition compared to the (−) enantiomer of flosequinan (PDE3): eight-fold increase
3 | Cn1cc([S+]([O-])CF)c(=O)c2ccc(F)cc21 (racemic) [monofluoroflosequinan, 7-fluoro-3-fluoromethylsulfinyl-1-methyl-4-quinolone] | 0 | 0 | 0 | 0 | 0 | 0 | 0 | 0 | 0 | 1 min and 2 min | 4 (erection lasting longer than 7 minutes) | 4 (erection onset 1 minute or less (immediate)) | 12 | 3.0 |  | inhibition of protein serine/threonine kinase, PKC, non-selective ([2]; 100 μM, result in words): Significant inhibition; inhibition of protein serine/threonine kinase, PKC, non-selective ([2]; 300 μM, result in words): Significant inhibition; inhibition of protein serine/threonine kinase, PKC, non-selective ([2]; 1000 μM, 1% DMSO vehicle, result in words): Significant inhibition
4 | Cn1cc([S+]([O-])C(F)F)c(=O)c2ccc(F)cc21 (stereo not drawn) [difluoroflosequinan, 3-difluoromethylsulfinyl-7-fluoro-1-methyl-4-quinolone] | 0 | 0 | 0 | 0 | 0 | 0 | 0 | 0 | 0 | 6 min | 3 (erection lasting at least 5 minutes but less than 7 minutes) | 4 (erection onset 1 minute or less (immediate)) | 10 | 2.5 | immediate <1 min | 
5 | Cn1cc([S+]([O-])CC(=O)O)c(=O)c2ccc(F)cc21 (stereo not drawn) [carboxyflosequinan, 3-carboxymethylsulfinyl-7-fluoro-1-methyl-4-quinolone] | 0 | 0 | 0 | 0 | 0 | 0 | 0 | 0 | 0 | 2 min | 4 (erection lasting longer than 7 minutes) | 4 (erection onset 1 minute or less (immediate)) | 8 | 2 | immediate <1 min | inhibition of protein serine/threonine kinase, PKC, non-selective ([2]; 100 μM, 1% DMSO vehicle): greater than 50%; inhibition of protein serine/threonine kinase, PKC, non-selective ([2]; 300 μM, 1% DMSO vehicle): greater than 50%; inhibition of protein serine/threonine kinase, PKC, non-selective ([2]; 1000 μM, 1% DMSO vehicle): greater than 50%

From patent US7041677B2, “Use of monochloroflosequinan in the treatment of sexual dysfunction” (R.T. Alamo Ventures I, LLC, priority 2002, dated 2006)
